Results reported in PubChem BioAssay (NCI).
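Where inhibition never reached the appropriate level, the endpoint shown equals the highest concentration tested. Otherwise, values were interpolated linearly from a five-concentration, 48-hour dose response in 96-well plates. TGI is the concentration that stops growth completely.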

Assays:
Test in all cases: NCI tumour cell line growth inhibition, 48 h
MALME-3M melanoma = system: MALME-3M melanoma
SW-620 colon = system: SW-620 colon
MDA-MB-231 breast = system: MDA-MB-231 breast
SNB-19 CNS = system: SNB-19 CNS
UACC-62 melanoma = system: UACC-62 melanoma
SR leukemia = system: SR leukemia
HCT-15 colon = system: HCT-15 colon
LOX IMVI melanoma = system: LOX IMVI melanoma
HCC-2998 colon = system: HCC-2998 colon
HOP-62 NSCLC = system: HOP-62 NSCLC
NCI-H23 lung = system: NCI-H23 lung
NCI-H460 lung = system: NCI-H460 lung
UO-31 renal = system: UO-31 renal
SK-MEL-5 melanoma = system: SK-MEL-5 melanoma
ACHN renal = system: ACHN renal
KM12 colon = system: KM12 colon
PC-3 prostate = system: PC-3 prostate
MDA-N = system: MDA-N
UACC-257 melanoma = system: UACC-257 melanoma
786-0 renal = system: 786-0 renal
SF-268 CNS = system: SF-268 CNS
OVCAR-8 ovarian = system: OVCAR-8 ovarian
HT29 colon = system: HT29 colon
OVCAR-5 ovarian = system: OVCAR-5 ovarian
CAKI-1 renal = system: CAKI-1 renal
U251 CNS = system: U251 CNS
COLO 205 colon = system: COLO 205 colon
SK-MEL-28 melanoma = system: SK-MEL-28 melanoma
A498 renal = system: A498 renal
MCF7 breast = system: MCF7 breast
OVCAR-4 ovarian = system: OVCAR-4 ovarian
SNB-75 CNS = system: SNB-75 CNS
A549 NSCLC = system: A549 NSCLC
SK-OV-3 ovarian = system: SK-OV-3 ovarian
MOLT-4 leukemia = system: MOLT-4 leukemia
HOP-92 NSCLC = system: HOP-92 NSCLC
RXF 393 renal = system: RXF 393 renal
DU-145 prostate = system: DU-145 prostate
M14 melanoma = system: M14 melanoma
NCI-H522 lung = system: NCI-H522 lung
EKVX NSCLC = system: EKVX NSCLC
HS 578T breast = system: HS 578T breast
MDA-MB-435 = system: MDA-MB-435
NCI-H226 lung = system: NCI-H226 lung
NCI/ADR-RES ovarian = system: NCI/ADR-RES ovarian
K-562 leukemia = system: K-562 leukemia
TK-10 renal = system: TK-10 renal
SN12C renal = system: SN12C renal
HL-60(TB) leukemia = system: HL-60(TB) leukemia
CCRF-CEM leukemia = system: CCRF-CEM leukemia
SF-539 CNS = system: SF-539 CNS
SF-295 CNS = system: SF-295 CNS
IGROV1 ovarian = system: IGROV1 ovarian
HCT-116 colon = system: HCT-116 colon
OVCAR-3 ovarian = system: OVCAR-3 ovarian
BT-549 breast = system: BT-549 breast
T-47D breast = system: T-47D breast
RPMI-8226 leukemia = system: RPMI-8226 leukemia
SK-MEL-2 melanoma = system: SK-MEL-2 melanoma

CSc1nc(C)c(CCOC(C)=O)c(Cl)n1
TGI (MALME-3M melanoma): > 100 µM | TGI (SW-620 colon): > 100 µM | TGI (MDA-MB-231 breast): > 100 µM | TGI (SNB-19 CNS): > 100 µM | TGI (UACC-62 melanoma): > 100 µM | TGI (SR leukemia): > 100 µM | TGI (HCT-15 colon): > 100 µM | TGI (LOX IMVI melanoma): > 100 µM | TGI (HCC-2998 colon): > 100 µM | TGI (HOP-62 NSCLC): > 100 µM | TGI (NCI-H23 lung): > 100 µM | TGI (NCI-H460 lung): > 100 µM | TGI (UO-31 renal): > 100 µM | TGI (SK-MEL-5 melanoma): > 100 µM | TGI (ACHN renal): > 100 µM | TGI (KM12 colon): > 100 µM | TGI (PC-3 prostate): > 100 µM | TGI (MDA-N): > 100 µM | TGI (UACC-257 melanoma): > 100 µM | TGI (786-0 renal): > 100 µM | TGI (SF-268 CNS): > 100 µM | TGI (OVCAR-8 ovarian): > 100 µM | TGI (HT29 colon): > 100 µM | TGI (OVCAR-5 ovarian): > 100 µM | TGI (CAKI-1 renal): > 100 µM | TGI (U251 CNS): > 100 µM | TGI (COLO 205 colon): > 100 µM | TGI (SK-MEL-28 melanoma): > 100 µM | TGI (A498 renal): > 100 µM | TGI (MCF7 breast): > 100 µM | TGI (OVCAR-4 ovarian): > 100 µM | TGI (SNB-75 CNS): > 100 µM | TGI (A549 NSCLC): > 100 µM | TGI (SK-OV-3 ovarian): > 100 µM | TGI (MOLT-4 leukemia): > 100 µM | TGI (HOP-92 NSCLC): > 100 µM | TGI (RXF 393 renal): > 100 µM | TGI (DU-145 prostate): > 100 µM | TGI (M14 melanoma): > 100 µM | TGI (NCI-H522 lung): > 100 µM | TGI (EKVX NSCLC): > 100 µM | TGI (HS 578T breast): > 100 µM | TGI (MDA-MB-435): > 100 µM | TGI (NCI-H226 lung): > 100 µM | TGI (NCI/ADR-RES ovarian): > 100 µM | TGI (K-562 leukemia): > 100 µM | TGI (TK-10 renal): > 100 µM | TGI (SN12C renal): > 100 µM | TGI (HL-60(TB) leukemia): > 100 µM | TGI (CCRF-CEM leukemia): > 100 µM | TGI (SF-539 CNS): > 100 µM | TGI (SF-295 CNS): > 100 µM | TGI (IGROV1 ovarian): > 100 µM | TGI (HCT-116 colon): > 100 µM | TGI (OVCAR-3 ovarian): > 100 µM | TGI (BT-549 breast): > 100 µM | TGI (T-47D breast): > 100 µM | TGI (RPMI-8226 leukemia): > 100 µM

COc1cc2c(cc1O)C1(Cc3ccc4c(c3C1=O)OCO4)N(C)CC2 (stereo not given)
TGI (MALME-3M melanoma): > 100 µM | TGI (SW-620 colon): > 100 µM | TGI (MDA-MB-231 breast): > 100 µM | TGI (SNB-19 CNS): > 100 µM | TGI (UACC-62 melanoma): > 100 µM | TGI (SR leukemia): > 100 µM | TGI (HCT-15 colon): > 100 µM | TGI (HCC-2998 colon): > 100 µM | TGI (HOP-62 NSCLC): > 100 µM | TGI (NCI-H23 lung): > 100 µM | TGI (NCI-H460 lung): > 100 µM | TGI (UO-31 renal): > 100 µM | TGI (SK-MEL-5 melanoma): > 100 µM | TGI (ACHN renal): > 100 µM | TGI (KM12 colon): > 100 µM | TGI (PC-3 prostate): > 100 µM | TGI (MDA-N): > 100 µM | TGI (UACC-257 melanoma): > 100 µM | TGI (SK-MEL-2 melanoma): > 100 µM | TGI (786-0 renal): > 100 µM | TGI (SF-268 CNS): > 100 µM | TGI (OVCAR-8 ovarian): > 100 µM | TGI (HT29 colon): > 100 µM | TGI (OVCAR-5 ovarian): > 100 µM | TGI (CAKI-1 renal): > 100 µM | TGI (U251 CNS): > 100 µM | TGI (COLO 205 colon): > 100 µM | TGI (SK-MEL-28 melanoma): > 100 µM | TGI (A498 renal): > 100 µM | TGI (MCF7 breast): > 100 µM | TGI (OVCAR-4 ovarian): > 100 µM | TGI (SNB-75 CNS): > 100 µM | TGI (A549 NSCLC): > 100 µM | TGI (SK-OV-3 ovarian): > 100 µM | TGI (MOLT-4 leukemia): > 100 µM | TGI (HOP-92 NSCLC): > 100 µM | TGI (RXF 393 renal): > 100 µM | TGI (DU-145 prostate): > 100 µM | TGI (M14 melanoma): > 100 µM | TGI (NCI-H522 lung): > 100 µM | TGI (EKVX NSCLC): > 100 µM | TGI (HS 578T breast): > 100 µM | TGI (MDA-MB-435): > 100 µM | TGI (NCI-H226 lung): > 100 µM | TGI (NCI/ADR-RES ovarian): > 100 µM | TGI (K-562 leukemia): > 100 µM | TGI (TK-10 renal): > 100 µM | TGI (SN12C renal): > 100 µM | TGI (HL-60(TB) leukemia): > 100 µM | TGI (CCRF-CEM leukemia): > 100 µM | TGI (SF-539 CNS): > 100 µM | TGI (SF-295 CNS): > 100 µM | TGI (IGROV1 ovarian): > 100 µM | TGI (HCT-116 colon): > 100 µM | TGI (OVCAR-3 ovarian): > 100 µM | TGI (BT-549 breast): > 100 µM | TGI (T-47D breast): > 100 µM | TGI (RPMI-8226 leukemia): > 100 µM

CSC(=S)OC1CC(n2cnc3c(NC(=O)c4ccccc4)ncnc32)OC1CO[Si](C)(C)C(C)(C)C (stereo not given)
TGI (MALME-3M melanoma): 51.9 µM | TGI (SW-620 colon): > 56.2 µM | TGI (MDA-MB-231 breast): > 46.4 µM | TGI (SNB-19 CNS): > 56.2 µM | TGI (UACC-62 melanoma): > 56.2 µM | TGI (SR leukemia): > 50 µM | TGI (HCT-15 colon): > 56.2 µM | TGI (LOX IMVI melanoma): 47.2 µM | TGI (HCC-2998 colon): > 31.6 µM | TGI (HOP-62 NSCLC): 46 µM | TGI (NCI-H23 lung): > 56.2 µM | TGI (NCI-H460 lung): > 56.2 µM | TGI (UO-31 renal): 28 µM | TGI (SK-MEL-5 melanoma): 18.3 µM | TGI (ACHN renal): > 56.2 µM | TGI (KM12 colon): 41.6 µM | TGI (PC-3 prostate): > 46.4 µM | TGI (MDA-N): 47.4 µM | TGI (UACC-257 melanoma): > 56.2 µM | TGI (SK-MEL-2 melanoma): 53.4 µM | TGI (786-0 renal): > 56.2 µM | TGI (SF-268 CNS): > 56.2 µM | TGI (OVCAR-8 ovarian): > 56.2 µM | TGI (HT29 colon): > 56.2 µM | TGI (OVCAR-5 ovarian): > 56.2 µM | TGI (CAKI-1 renal): > 46.4 µM | TGI (U251 CNS): 44.4 µM | TGI (COLO 205 colon): 18.1 µM | TGI (SK-MEL-28 melanoma): > 46.4 µM | TGI (A498 renal): > 31.6 µM | TGI (MCF7 breast): 40.3 µM | TGI (OVCAR-4 ovarian): > 56.2 µM | TGI (SNB-75 CNS): 52 µM | TGI (A549 NSCLC): > 100 µM | TGI (SK-OV-3 ovarian): > 46.4 µM | TGI (MOLT-4 leukemia): 14.8 µM | TGI (HOP-92 NSCLC): 44.4 µM | TGI (RXF 393 renal): > 65.8 µM | TGI (DU-145 prostate): 42.6 µM | TGI (M14 melanoma): > 56.2 µM | TGI (NCI-H522 lung): > 56.2 µM | TGI (EKVX NSCLC): > 56.2 µM | TGI (HS 578T breast): > 56.2 µM | TGI (MDA-MB-435): 27.9 µM | TGI (NCI-H226 lung): > 56.2 µM | TGI (NCI/ADR-RES ovarian): > 56.2 µM | TGI (K-562 leukemia): > 49.5 µM | TGI (TK-10 renal): > 56.2 µM | TGI (SN12C renal): 52.2 µM | TGI (HL-60(TB) leukemia): 32.6 µM | TGI (CCRF-CEM leukemia): > 51.7 µM | TGI (SF-539 CNS): > 46.4 µM | TGI (SF-295 CNS): > 56.2 µM | TGI (IGROV1 ovarian): 44.2 µM | TGI (HCT-116 colon): > 100 µM | TGI (OVCAR-3 ovarian): 34.4 µM | TGI (BT-549 breast): > 100 µM | TGI (T-47D breast): > 56.2 µM | TGI (RPMI-8226 leukemia): 43 µM
